The values below come from ChEMBL document CHEMBL1139029, “Synthesis and SAR of substituted tetrahydrocarbazole derivatives as new NPY-1 antagonists” (Bioorg Med Chem Lett, 2006).

pIC50, pKi: −log10 of the molar value.

One data set concerns the target T1, Neuropeptide Y receptor type 1 (Homo sapiens, UniProt P25929).
T1 sequence (P25929 whole entry): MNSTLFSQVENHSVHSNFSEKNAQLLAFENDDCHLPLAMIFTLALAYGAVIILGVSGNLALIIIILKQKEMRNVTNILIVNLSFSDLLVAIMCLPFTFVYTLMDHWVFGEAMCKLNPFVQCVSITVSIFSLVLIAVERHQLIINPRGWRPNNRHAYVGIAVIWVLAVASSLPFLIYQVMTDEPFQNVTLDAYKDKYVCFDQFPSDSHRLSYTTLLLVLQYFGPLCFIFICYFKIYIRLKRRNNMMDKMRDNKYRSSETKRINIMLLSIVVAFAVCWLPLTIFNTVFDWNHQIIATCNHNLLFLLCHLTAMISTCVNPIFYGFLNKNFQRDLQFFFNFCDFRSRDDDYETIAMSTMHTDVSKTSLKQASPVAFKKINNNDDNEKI
The experiment in a line: Displacement of [125I]PYY from human recombinant NPY1 receptor expressed in CHO cells. Format: cell-based.
Details: not given
In general terms: Displacement assays read how much labelled ligand stays bound in the presence of the test substance.
Regarding `O=C1c2c(n(CC3CCNCC3)c3ccccc23)[C@H](Oc2ccc(Cl)cc2)CC1N1CCN(CCO)CC1` (stereo partly specified), the pIC50 (usually the IC50 on a negative log10 scale, so that one unit is a factor of ten) was 7.43. The same measure, in the same setting: to `CN1CCN(C2C[C@@H](Oc3ccc(Cl)cc3)c3c(c4ccccc4n3C)C2=O)CC1` (stereo partly specified) belongs 4.60; to `O=C1c2c(n(CCCN3CCCCC3)c3ccccc23)[C@H](Oc2ccc(Cl)cc2)CC1N1CCOCC1` (stereo partly specified), 4.80.

As to `CC1(F)CCN(C2C[C@@H](Oc3ccc(Cl)cc3)c3c(c4ccccc4n3CC3CCNCC3)C2=O)CC1` (stereo partly specified), the pIC50 was 7.00. The same measure, in the same setting: under `CC1CCN([C@H]2C[C@@H](Oc3ccc(Cl)cc3)c3c(c4ccccc4n3CC3CCNCC3)C2=O)CC1` stands 7.65. Same read-out and setting: to `CNC1CCC(Cn2c3c(c4ccccc42)C(=O)C(N2CCN(C)CC2)C[C@H]3Oc2ccc(Cl)cc2)CC1` (stereo partly specified) belongs 7.03; to `CC1CCN([C@@H]2C[C@@H](Oc3ccc(Cl)cc3)c3c(c4ccccc4n3CC3CCNCC3)C2=O)CC1`, 7.01. Still for that read-out and setting: under `O=C1CC[C@@H](Oc2ccc(Cl)cc2)c2c1c1ccccc1n2CCCN1CCCCC1` stands 5.14. For `CN1CCN(C2C[C@@H](Oc3ccc(Cl)cc3)c3c(c4ccccc4n3C[C@H]3CCNC[C@@H]3F)C2=O)CC1` (stereo partly specified), the pIC50 is 6.62. With `O=C1c2c(n(CCCN3CCCCC3)c3ccccc23)[C@H](Oc2ccc(Cl)cc2)CC1N1CCNCC1` (stereo partly specified), the pIC50 is 6.48. Same read-out and setting: under `CN1CCN(C2C[C@@H](Oc3ccc(Cl)cc3)c3c(c4ccccc4n3C[C@H]3CCN(C)C[C@@H]3F)C2=O)CC1` (stereo partly specified) stands 6.36; under `CC1CCN(C2C[C@@H](Oc3ccc(Cl)cc3)c3c(c4ccccc4n3CCCN3CCCCC3)C2=O)CC1` (stereo partly specified), 6.19; under `O=C1c2c(n(CCCN3CCCCC3)c3ccccc23)[C@H](Oc2ccc(Cl)cc2)CC1N1CCCCC1` (stereo partly specified), 5.47.

`CN1CCN(C2C[C@@H](Oc3ccc(Cl)cc3)c3c(c4ccccc4n3C[C@@H]3CCN(C)C[C@@H]3F)C2=O)CC1` (stereo partly specified): the pIC50 was 6.77 and the pKi (usually the negative decadic logarithm of the Ki, by convention in mol/L) was 7.00. With `CN1CCN([C@H]2C[C@@H](Oc3ccc(Cl)cc3)c3c(c4ccccc4n3CC3CCNCC3)C2=O)CC1`, the pIC50 was 7.31. On the same count and under the same terms, to `CN1CCN(C2C[C@@H](Oc3ccc(Cl)cc3)c3c(c4ccccc4n3CCCN3CCCCC3)C2=O)CC1` (stereo partly specified) belongs 5.88; to `CN1CCN([C@@H]2C[C@@H](Oc3ccc(Cl)cc3)c3c(c4ccccc4n3CC3CCNCC3)C2=O)CC1`, 6.11. The same measure, in the same setting: under `CN1CCN(C2C[C@@H](Oc3ccc(Cl)cc3)c3c(c4ccccc4n3C[C@@H]3CCNC[C@@H]3F)C2=O)CC1` (stereo partly specified) stands 6.73; under `CN1CCC(Cn2c3c(c4ccccc42)C(=O)C(N2CCN(C)CC2)C[C@H]3Oc2ccc(Cl)cc2)CC1` (stereo partly specified), 7.47. Same read-out and setting: under `O=C1c2c(n(CC3CCNCC3)c3ccccc23)[C@H](Oc2ccc(Cl)cc2)CC1N1CCC(F)(F)CC1` (stereo partly specified) stands 5.73; under `CN1CCN(C2C[C@@H](Oc3ccc(Cl)cc3)c3c(c4ccccc4n3CC3CCNCC3)C2=O)CC1=O` (stereo partly specified), 5.41.

Test system in a further data set: not listed separately
In words: Oral bioavailability in CD rat at 5 mg/kg, po. Format: ADME, organism-based. The settings on record: in vivo.
`CN1CCN([C@H]2C[C@@H](Oc3ccc(Cl)cc3)c3c(c4ccccc4n3CC3CCNCC3)C2=O)CC1`: the bioavailability – broadly, the share of a dose that reaches the circulation, judged against a reference dose that is usually intravenous – amounted to 0%. Still for that read-out and setting: under `CN1CCC(Cn2c3c(c4ccccc42)C(=O)C(N2CCN(C)CC2)C[C@H]3Oc2ccc(Cl)cc2)CC1` (stereo partly specified) stands 27%.

Test system in a further data set: not listed separately
In words: Plasma clearance in CD rat at 1 mg/kg, iv. Format: ADME, organism-based. More on the design: dose 1 mg/kg, route intravenous.
Details: not given
As for `CN1CCC(Cn2c3c(c4ccccc42)C(=O)C(N2CCN(C)CC2)C[C@H]3Oc2ccc(Cl)cc2)CC1` (stereo partly specified), the clearance (as a rule, a measure of how efficiently the substance is removed, as volume per time) turned out to be 59 mL/min/kg.

Test system in the next data set: not listed separately
The experiment in a line: Ratio of drug level in brain against plasma in CD rat at 1 mg/kg, iv. Format: ADME, organism-based. Details: dose 1 mg/kg, route intravenous. Conditions: brain and plasma.
For `CN1CCC(Cn2c3c(c4ccccc42)C(=O)C(N2CCN(C)CC2)C[C@H]3Oc2ccc(Cl)cc2)CC1` (stereo partly specified), the Kp – broadly, tissue or fluid exposure divided by exposure in the circulation – was determined as 0.8.
